Read-outs that look alike come from different tables or passages of the source. Marks after values point to notes of the source that are not given here.
What was measured:
BFS1 sarcoma = details: cited from earlier work
[1] = test system: R3230AC rat mammary adenocarcinoma cells; test: Phototoxicity toward R3230AC cells in culture; format: cell-based; details: 10 μM, 24 h; 570-800 nm light, 0.9 J cm^−2; 24 h post-irradiation
Protocol: Similar results were obtained with R3230AC rat mammary adenocarcinoma cells in vitro. […] Light-treated cells and dark controls were incubated for 24 h and cell survival was determined. The surviving fraction, 24 h post-irradiation, is shown graphically in FIG. 4c.

Colo-26 cells = test: Dark and light-induced toxicity toward Colo-26 cells in culture; format: cell-based, murine; details: for EC50: 4 J cm^−2 of 590-800 nm light
Protocol: In order to compare relative phototoxicity, the core-modified porphyrins of Table 1 were evaluated in culture for dark and light-induced toxicities toward Colo-26 cells, a murine colon carcinoma cell line.

[2] = Quantum yield for the generation of singlet oxygen; format: physicochemical; details: aqueous solution
[3] = Rate of photobleaching in phosphate-buffered saline; format: physicochemical; details: PBS; 570-750 nm light at 500 mW cm^−2; constant initial absorbance
Description: One limitation of PDT dosimetry is the rate of photobleaching of the photosensitizer, which can be problematic with Photofrin® and even more problematic with the bacteriochlorins and the chlorins (such as HPPH).

[4] = Single-photon quantum yield for fluorescence; format: physicochemical; details: for quantum yield for fluorescence φF (± σ): one-photon, standard TPPS4 in water; for emissiveness relative to dithiaporphyrin analogue: 7 vs 6, 10 vs DH-82
Description: In vivo fluorescence techniques have had significant impact on the development of PDT with respect to the pharmacokinetics of sensitizers and to PDT dosimetry. Photofrin® has been used in fluorescent diagnostics and the fluorescence of TPPS4 has been extensively studied. […] The quantum yield standard used in these studies was a freshly prepared solution of TPPS4 (φF =0.12) dissolved in water.

[5] = in vivo; cited from earlier work
Colo-26 tumors = test: PDT against implanted Colo-26 tumors in BALB/c mice; format: in vivo
Protocol: Core-modified porphyrin 6 gave a PDT response in vivo with 694-nm light in BALB/c mice bearing Colo-26 tumors. Animals treated with photosensitizer 6 at 3.25 mg (3.0 μmol)/kg and light required 10.3±0.8 d to reach 400-mm^3 tumor volume, which was more than double the time for control animals (4.3±1.0 d) receiving neither drug nor light (P <0.01).
The animals were irradiated 4 h post-injection with 135 J cm^−2 of 694-nm red light from a dye laser (75 mW cm^−2 for 30 min). […] For comparison purposes, BALB/C mice bearing Colo-26 tumors were given 2.5 mg (4.0 μmol)/kg of Photofrin® as a 5% aqueous dextrose solution and were irradiated 24 h later with 135 J cm^−2 of 630-nm laser light at a power of 75 mW cm^−2 for PDT with Photofrin®.
Animals initially were given i.v. (tail vein) injections of sensitizer at various concentrations (0.05to 5.0 μmol/kg). Mice were restrained at various times thereafter without anesthesia in specially designed holders. Fischer 344 female rats were chemically restrained at various times thereafter. In both models, tumors or normal back skin were exposed to light from a xenon arc lamp with appropriate filters or to a dye laser tuned to the absorption maximum determined by in vivo reflectance measurements. Power density of delivered light typically fell in the range of 10-200 mW cm^−2 evenly distributed to a spot size of roughly 1.5 cm and measured by a radiometer. Several dose rates were explored to examine role/limitation of available oxygen on the photodynamic process. Intratumor temperatures were measured with an Omega HYP-O microthermocouple and, when necessary, a stream of nitrogen gas was used to keep intratumor temperatures below 37° C. Animals were examined and measured daily for the first 14 days post treatment and every other day thereafter until the tumors reached 400 mm^3 in mice or until the tumors double in size for Fischer 344 female rats or for 90 days. Tumor size were measured in two dimensions with a caliper. Time to 400 mm^3 or volume doubling times of tumors from control and PDT-treated groups (8-12 animals per group) were compared statistically using the SAS statistical program (SAS, Inc., Cary, N.C.). A P-value of <0.05 is considered significant. The degree of damage to the normal skin within the irradiation field also were noted. Disappearance of tumor with minimal damage to normal skin is the most desirable response. Animals are considered cured if no tumor regrowth occurs by 90 days. In all studies, three control groups were utilized in addition to the treatment group receiving both sensitizer and light: 1) a complete control receiving neither drug nor light, 2) a group receiving sensitizer only, and 3) a group receiving light only. Representative animals from each of the treatment groups were processed for histology immediately, one day, or two weeks after irradiation. Step sections through the tumor were used to define the boundaries of tumor cell damage and death as a function of distance from the skin surface.

mice = details: 150 mg/kg; cited from earlier work
BALB/c mice = test: Preliminary toxicity, single intravenous injection in BALB/c mice
two tumor cell lines = test: Phototoxicity in two tumor cell lines in vitro; format: cell-based
Protocol: The topological and chemical properties of dichalcogenaporphyrins impart unexpected biological properties relative to the corresponding porphyrin derivatives. 5,10,15,20-tetrakis(4-sulfonatophenyl)-21-thiaporphyrin 8 and 21-selenaporphyrin 9 (FIG. 13) were prepared and evaluated the phototoxicity in two tumor cell lines in vitro.

[6] = 24 h incubation in dark, survival 24 h later, read-out: effective concentration to give 50% cell-kill of Colo-26 cells in vitro (EC50)
[7] = read-out: EC50 against Colo-26 cells
[8] = 135 J cm^−2, DH-105 2.5, DH-82 0.13, MA-99 0.15 mg/kg, 694 nm 4 h post-injection, Photofrin® 2.5 mg/kg, 630 nm 24 h

## O=S(=O)([O-])c1ccc(-c2c3nc(c(-c4ccc(S(=O)(=O)[O-])cc4)c4ccc([se]4)c(-c4ccc(S(=O)(=O)[O-])cc4)c4nc(c(-c5ccc(S(=O)(=O)[O-])cc5)c5ccc2[nH]5)C=C4)C=C3)cc1.[Na+].[Na+].[Na+].[Na+] [sulfonated 2]
BFS1 sarcoma; animals irradiated 24 h post-injection
  skin photosensitization: no skin photosensitization was observed

## O=S(=O)([O-])c1ccc(-c2c3nc(c(-c4ccc(S(=O)(=O)[O-])cc4)c4ccc(s4)c(-c4ccc(S(=O)(=O)[O-])cc4)c4nc(c(-c5ccc(S(=O)(=O)[O-])cc5)c5ccc2[nH]5)C=C4)C=C3)cc1.[Na+].[Na+].[Na+].[Na+] [sulfonated 1]
BFS1 sarcoma; BFS1 sarcoma-bearing mice
  efficacy in vivo relative to chlorin e6: comparable to chlorin e6 for efficacy

## CN(C)c1ccc(-c2c3nc(c(-c4ccc(S(=O)(=O)[O-])cc4)c4ccc(s4)c(-c4ccc(S(=O)(=O)[O-])cc4)c4nc(c(-c5ccc(N(C)C)cc5)c5ccc2s5)C=C4)C=C3)cc1.[Na+].[Na+] [Compound 14]
[1]
  phototoxicity relative to Photofrin® toward R3230AC cells (surviving fraction, FIG. 4c): more phototoxic than Photofrin®
Colo-26 cells; [6]
  EC50: 600 nM
[2]
  quantum yield for the generation of singlet oxygen φ(^1O2): 0.60 ± 0.02
[3]
  rate of photobleaching (kbleach): 0.77 ± 0.04 × 10^4 s^−1
[4]
  quantum yield for fluorescence φF (± σ): <10^−4

## O=S(=O)(O)c1ccc(-c2c3nc(c(-c4ccc(S(=O)(=O)O)cc4)c4ccc([se]4)c(-c4ccc(S(=O)(=O)O)cc4)c4nc(c(-c5ccc(S(=O)(=O)O)cc5)c5ccc2[se]5)C=C4)C=C3)cc1 [Compound 7]
Colo-26 cells; [6]
  EC50: > 100000 nM
[4]
  emissiveness relative to dithiaporphyrin analogue: 10%
  quantum yield for fluorescence φF (± σ): 8.9 (± 0.4) × 10^−4

## CCCCCCOC(C)c1c(C)c2cc3nc(c4c5[nH]c(cc6nc(cc1[nH]2)C(C)=C6CC)c(C)c5C(=O)C4)[C@@H](CCC(=O)O)[C@@H]3C (stereo partly drawn) [HPPH, reference compound]
Colo-26 cells; [7]
  EC50: 300 nM
Colo-26 cells; Colo-26 cells, 590-800 nm light
  EC50 fold lower than for Photofrin®: 30 fold

## O=S(=O)([O-])c1ccc(-c2c3nc(c(-c4ccc(C(F)(F)F)cc4)c4ccc(s4)c(-c4ccc(C(F)(F)F)cc4)c4nc(c(-c5ccc(S(=O)(=O)[O-])cc5)c5ccc2s5)C=C4)C=C3)cc1.[Na+].[Na+] [Compound 13]
Colo-26 cells; [6]
  EC50: > 100000 nM
[3]
  rate of photobleaching (kbleach): 0.13 ± 0.02 × 10^4 s^−1

## CC(=O)[O-].CC(=O)[O-].CCc1c(CC)c2cc3nc(cnc4cc(OCCOCCOCCOC)c(OCCOCCOCCOC)cc4ncc4nc(cc1[n-]2)C(CCCO)=C4C)C(C)=C3CCCO.O.[Lu+3] [Lu-Tex, lutetium texaphyrin]
[5]
  skin photosensitivity: minimal skin photosensitivity

## O=S(=O)(O)c1ccc(-c2c3nc(c(-c4ccc(S(=O)(=O)O)cc4)c4ccc([nH]4)c(-c4ccc(S(=O)(=O)O)cc4)c4nc(c(-c5ccc(S(=O)(=O)O)cc5)c5ccc2[nH]5)C=C4)C=C3)cc1 [TPPS4, 5,10,15,20-Tetrakis (4-sulfonato-phenyl)porphyrin, reference compound]
Colo-26 tumors; TPPS4 at 10 mg/kg
  time to reach 400-mm^3 tumor volume: 6.7 ± 1.1 days
mice
  toxicity at high concentrations: neurotoxicity
Colo-26 cells; [6]
  EC50: 125000 nM
[2]
  quantum yield for the generation of singlet oxygen φ(^1O2): 0.71^b

## O=S(=O)([O-])c1ccc(-c2c3nc(c(-c4ccc(F)cc4)c4ccc(s4)c(-c4ccc(F)cc4)c4nc(c(-c5ccc(S(=O)(=O)[O-])cc5)c5ccc2[se]5)C=C4)C=C3)cc1.[Na+].[Na+] [Compound 10]
Colo-26 cells; [6]
  EC50: 2100 nM
[2]
  quantum yield for the generation of singlet oxygen φ(^1O2): 0.65 ± 0.01
[4]
  emissiveness relative to dithiaporphyrin analogue: 2%
  quantum yield for fluorescence φF (± σ): 1.4 (± 0.1) × 10^−4

## O=C([O-])COc1ccc(-c2c3nc(c(-c4ccccc4)c4ccc(s4)c(-c4ccccc4)c4nc(c(-c5ccc(OCC(=O)[O-])cc5)c5ccc2s5)C=C4)C=C3)cc1.[Na+].[Na+] [Compound 15]
Colo-26 cells; [6]
  EC50: 150 nM
[3]
  rate of photobleaching (kbleach): 0.18 ± 0.02 × 10^4 s^−1

## O=S(=O)([O-])c1ccc(-c2c3nc(c(-c4ccc(F)cc4)c4ccc([se]4)c(-c4ccc(F)cc4)c4nc(c(-c5ccc(S(=O)(=O)[O-])cc5)c5ccc2[se]5)C=C4)C=C3)cc1.[Na+].[Na+] [DH-105]
Colo-26 tumors; [8]
  cures (no tumor regrowth 90 days post-treatment): three cures
  mean time to 400 mm^3 of the animals not cured: 17 ± 3 days
BALB/c mice; 10 mg/kg i.v., after 90 days
  gross abnormalities in organs and tissues after sacrifice: no gross abnormalities were noted
BALB/c mice; 10 mg/kg, followed 90 days post-injection, normal vivarium light
  toxicity and morbidity: neither toxicity nor morbidity was observed
[1]
  phototoxicity relative to Photofrin® toward R3230AC cells (surviving fraction, FIG. 4c): more phototoxic than Photofrin®
Colo-26 cells; [7]
  EC50: 7900 nM
[2]
  quantum yield for the generation of singlet oxygen φ(^1O2): 0.55 ± 0.02
[3]
  rate of photobleaching (kbleach): 1.44 ± 0.03 × 10^4 s^−1
[4]
  fluorescence emission detected: no detectable emission
  quantum yield for fluorescence φF (± σ): <10^−4

## O=S(=O)([O-])c1ccc(-c2c3nc(c(-c4ccc(F)cc4)c4ccc([se]4)c(-c4ccc(F)cc4)c4nc(c(-c5ccc(S(=O)(=O)[O-])cc5)c5ccc2s5)C=C4)C=C3)cc1.[Na+].[Na+] [Compound 11]
Colo-26 cells; [6]
  EC50: 1200 nM
[2]
  quantum yield for the generation of singlet oxygen φ(^1O2): 0.64 ± 0.01

## 5,10,15,20-tetrakis(4-sulfonatophenyl)-21-thiaporphyrin [Compound 8]
Two tumor cell lines
  phototoxicity in two tumor cell lines: Neither 21-core-modified porphyrin displayed significant phototoxicity
Colo-26 cells; [6]
  EC50: > 100000 nM
[2]
  quantum yield for the generation of singlet oxygen φ(^1O2): 0.80 ± 0.02

## benzoporphyrin derivative
[5]
  duration of skin photosensitivity: 3 to 5 days

## O=S(=O)([O-])c1ccc(-c2c3nc(c(-c4ccc(S(=O)(=O)[O-])cc4)c4ccc([se]4)c(-c4ccc(S(=O)(=O)[O-])cc4)c4nc(c(-c5ccc(S(=O)(=O)[O-])cc5)c5ccc2[nH]5)C=C4)C=C3)cc1.[Na+].[Na+].[Na+].[Na+] [Compound 9]
Two tumor cell lines
  phototoxicity in two tumor cell lines: Neither 21-core-modified porphyrin displayed significant phototoxicity

From US6984656B2, “Core modified porphyrins” (priority 2001, dated 2006)
